Reference: PMC8329502 (Toxicology Reports, 2021)

Molecular target: T1, cytochrome P450 1A2 (CYP1A2) (Homo sapiens, UniProt P05177)
T1 sequence (P05177 2-516): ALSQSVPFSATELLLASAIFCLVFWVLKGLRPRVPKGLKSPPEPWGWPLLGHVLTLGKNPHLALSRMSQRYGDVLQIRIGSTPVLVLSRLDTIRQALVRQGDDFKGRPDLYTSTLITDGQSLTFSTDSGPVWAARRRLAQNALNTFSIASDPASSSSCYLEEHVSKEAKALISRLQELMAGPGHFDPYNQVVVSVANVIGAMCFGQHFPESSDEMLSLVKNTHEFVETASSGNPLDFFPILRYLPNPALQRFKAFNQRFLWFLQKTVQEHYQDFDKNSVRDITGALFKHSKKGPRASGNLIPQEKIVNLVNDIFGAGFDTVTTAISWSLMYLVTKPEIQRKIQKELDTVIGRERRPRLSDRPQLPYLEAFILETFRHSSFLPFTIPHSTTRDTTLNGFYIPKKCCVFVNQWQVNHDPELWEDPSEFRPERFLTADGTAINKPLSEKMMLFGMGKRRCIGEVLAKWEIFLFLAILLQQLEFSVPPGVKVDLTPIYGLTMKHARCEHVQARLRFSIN
Experiment: […]-caffeine 3-N-demethylation in 50-donor pooled human liver microsomes
Format: biochemical

Row | IC50 | Compound
1 | 68.8 nM | COc1c2ccoc2cc2oc(=O)ccc12 [5-MOP, 5-methoxypsoralen]
2 | 277 nM | COc1c2ccoc2c(OC)c2oc(=O)ccc12 [ISOP, isopimpinellin]
